Source: US6737383B1, “Herbicidal oxadiazolidines” (priority 1999, dated 2004)

Experiments:
crabgrass = assay: Test B pre/postemergence crabgrass; type: in vivo, Digitaria sanguinalis
How it was run: (§1)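 Herbicidal effect was estimated by eye on a ten-point control scale after plants spent twelve to sixteen days in a greenhouse following soil or foliar treatment. Foliar sprays targeted plants at one to four leaves; all doses were formulated in a non-phytotoxic solvent with surfactant.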

giant foxtail = assay: Test B pre/postemergence giant foxtail; type: in vivo, Setaria faberii
How it was run: as §1

duck salad = assay: Test B flood test duck salad; type: in vivo, Heteranthera limosa
How it was run: (§2)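 Flood test on plants grown to the 2-leaf stage; treated plants kept in greenhouse twelve to sixteen days, then visually rated against controls on a 0 (no effect) to 10 (complete control) scale.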

bedstraw = assay: Test B pre/postemergence bedstraw; type: in vivo, Galium aparine
How it was run: as §1

wild oat = assay: Test B pre/postemergence wild oat; type: in vivo, Avena fatua
How it was run: as §1

soybean = assay: Test B pre/postemergence soybean; type: in vivo, Glycine max
How it was run: as §1

rice = assay: Test B flood test rice; type: in vivo, Oryza sativa
How it was run: as §2

bamyardgrass = assay: Test B flood test barnyardgrass; type: in vivo, Echinochloa crus-galli
How it was run: as §2

sugar beet = assay: Test B pre/postemergence sugar beet; type: in vivo, Beta vulgaris
How it was run: as §1

wheat = assay: Test B pre/postemergence wheat; type: in vivo, Triticum aestivum
How it was run: as §1

purple nutsedge = assay: Test B pre/postemergence purple nutsedge; type: in vivo, Cyperus rotundus
How it was run: as §1

blackgrass = assay: Test B pre/postemergence blackgrass; type: in vivo, Alopecurus myosuroides
How it was run: as §1

cocklebur = assay: Test B pre/postemergence cocklebur; type: in vivo, Xanthium strumarium
How it was run: as §1

velvetleaf = assay: Test B pre/postemergence velvetleaf; type: in vivo, Abutilon theophrasti
How it was run: as §1

corn = assay: Test B pre/postemergence corn; type: in vivo, Zea mays
How it was run: as §1

smallflower flatsedge = assay: Test B flood test smallflower flatsedge; type: in vivo, Cyperus difformis
How it was run: as §2

morningglory = assay: Test B pre/postemergence morningglory; type: in vivo, Ipomoea hederacea
How it was run: as §1

rape = assay: Test B pre/postemergence rape; type: in vivo, Brassica napus
How it was run: as §1

pigweed = assay: Test B pre/postemergence pigweed; type: in vivo, Amaranthus retroflexus
How it was run: as §1

surinam grass = assay: Test B pre/postemergence surinam grass; type: in vivo, Brachiaria decumbens
How it was run: as §1

[1] = Postemergence, Rate 62 g/ha, scale 0 to 10, 0 is no effect, 10 is complete control
[2] = Postemergence, Rate 125 g/ha, scale of 0 to 10 where 0 is no effect and 10 is complete control
[3] = Postemergence, Rate 250 g/ha, scale of 0 to 10, 0 is no effect, 10 is complete control
[4] = Postemergence, Rate 500 g/ha, scale of 0 to 10 where 0 is no effect and 10 is complete control
[5] = Preemergence, Rate 62 g/ha, scale 0 to 10 (0 no effect, 10 complete control)
[6] = Preemergence, Rate 125 g/ha, scale of 0 to 10 where 0 is no effect and 10 is complete control
[7] = Preemergence, Rate 500 g/ha, scale of 0 to 10 where 0 is no effect and 10 is complete control
[8] = Rate 62 g/ha, flood test species, Pre-emergence, visual evaluation after twelve to sixteen days
[9] = Rate 125 g/ha, under heading Pre-emergence, flood test species, visual evaluation after twelve to sixteen days
[10] = Rate 250 g/ha, Pre-emergence (flood test species), scale 0 to 10, 0 is no effect, 10 is complete control
[11] = Rate 500 g/ha, Pre-emergence section of Table B, 0 to 10 scale (0 no effect, 10 complete control)

CCC(C)n1c(=O)on(C(=O)N(c2ccccc2)C(C)C)c1=O (stereo not drawn) [Compound 610]
3: Plant response rating, Wild oats (wild oat; [2]) | Sugarbeets plant response rating (sugar beet; [5]) | Plant response rating, Nutsedge (purple nutsedge; [7]) | Plant response rating, Cocklebur (cocklebur; [7]) | Plant response rating, Velvetleaf (velvetleaf; [2]) | Corn plant response rating (corn; [6]) | Morningglory plant response rating (morningglory; [6]) | Rape plant response rating (rape; [3]) | Rape plant response rating (rape; [5])
7: Plant response rating, Giant foxtail (giant foxtail; [2]) | Ducksalad plant response rating (duck salad; [11]) | Plant response rating, Soybean (soybean; [2]) | Sugarbeets plant response rating (sugar beet; [6]) | Velvetleaf plant response rating (velvetleaf; [3]) | Plant response rating, Velvetleaf (velvetleaf; [4]) | Velvetleaf plant response rating (velvetleaf; [5]) | Velvetleaf plant response rating (velvetleaf; [6]) | Corn plant response rating (0 to 10 scale) (corn; Preemergence, Rate 250 g/ha) | Plant response rating, Redroot pigweed (pigweed; [4]) | B. signalgrass plant response rating (surinam grass; [3])
8: Plant response rating, Giant foxtail (giant foxtail; [1]) | Soybean plant response rating (soybean; [3]) | Plant response rating, Soybean (soybean; [7]) | Rice plant response rating (rice; [11]) | Barnyardgrass plant response rating (bamyardgrass; [11]) | Plant response rating, Sugarbeets (sugar beet; [7]) | Plant response rating, Blackgrass (blackgrass; [1]) | Blackgrass plant response rating (blackgrass; [5]) | Plant response rating, Corn (corn; [7]) | S. Flatsedge plant response rating (smallflower flatsedge; [11]) | Plant response rating, Morningglory (morningglory; [1]) | Plant response rating, Morningglory (morningglory; [2]) | Morningglory plant response rating (morningglory; [3]) | Plant response rating, Morningglory (morningglory; [7]) | Rape plant response rating (rape; [6]) | B. signalgrass plant response rating (surinam grass; [6])
10: Crabgrass plant response rating (crabgrass; [6]) | Plant response rating, Crabgrass (crabgrass; [7]) | Giant foxtail plant response rating (giant foxtail; [6]) | Plant response rating, Giant foxtail (giant foxtail; [7]) | Bedstraw plant response rating (bedstraw; [7]) | Plant response rating, Wild oats (wild oat; [7]) | Plant response rating, Blackgrass (blackgrass; [4]) | Blackgrass plant response rating (0 to 10 scale) (blackgrass; Preemergence, Rate 250 g/ha) | Blackgrass plant response rating (blackgrass; [7]) | Plant response rating, Velvetleaf (velvetleaf; [7]) | Plant response rating, Rape (rape; [7]) | Redroot pigweed plant response rating (pigweed; [5]) | Redroot pigweed plant response rating (pigweed; [6]) | Plant response rating, Redroot pigweed (pigweed; [7]) | B. signalgrass plant response rating (surinam grass; [7])
5: Wild oats plant response rating (wild oat; [3]) | Wild oats plant response rating (wild oat; [5]) | Plant response rating, Soybean (soybean; [1]) | Plant response rating, Wheat (wheat; [4]) | Nutsedge plant response rating (purple nutsedge; [3]) | Plant response rating, Corn (corn; [4]) | Plant response rating, Rape (rape; [4])
6: Wild oats plant response rating (wild oat; [6]) | Soybean plant response rating (soybean; [6]) | Plant response rating, Wheat (wheat; [7]) | Plant response rating, Nutsedge (purple nutsedge; [4]) | Redroot pigweed plant response rating (pigweed; [3]) | Plant response rating, B. signalgrass (surinam grass; [2]) | B. signalgrass plant response rating (surinam grass; [5])
1: Plant response rating, Wheat (wheat; [2]) | Plant response rating, Cocklebur (cocklebur; [2])
9: Plant response rating, Crabgrass (crabgrass; [1]) | Plant response rating, Crabgrass (crabgrass; [2]) | Crabgrass plant response rating (crabgrass; [3]) | Plant response rating, Crabgrass (crabgrass; [4]) | Crabgrass plant response rating (crabgrass; [5]) | Giant foxtail plant response rating (giant foxtail; [3]) | Plant response rating, Giant foxtail (giant foxtail; [4]) | Giant foxtail plant response rating (giant foxtail; [5]) | Plant response rating, Bedstraw (bedstraw; [4]) | Plant response rating, Wild oats (wild oat; [4]) | Plant response rating, Soybean (soybean; [4]) | Plant response rating, Blackgrass (blackgrass; [2]) | Blackgrass plant response rating (blackgrass; [3]) | Blackgrass plant response rating (blackgrass; [6]) | Plant response rating, Morningglory (morningglory; [4]) | Plant response rating, B. signalgrass (surinam grass; [4]) | B. signalgrass plant response rating (0 to 10 scale, 0 is no effect, 10 is complete control) (surinam grass; Preemergence, Rate 250 g/ha)
4: Bedstraw plant response rating (bedstraw; [3]) | Wheat plant response rating (wheat; [3])
2: Rice plant response rating (rice; [10]) | Wheat plant response rating (wheat; [5]) | Wheat plant response rating (wheat; [6]) | Plant response rating, Cocklebur (cocklebur; [4]) | Corn plant response rating (corn; [3]) | Plant response rating, Rape (rape; [2]) | Plant response rating, Redroot pigweed (pigweed; [2])
0: Plant response rating, Ducksalad (0 to 10 scale, 0 is no effect, 10 is complete control) (duck salad; [8]) | Ducksalad plant response rating (0 to 10 scale, 0 is no effect, 10 is complete control) (duck salad; [9]) | Ducksalad plant response rating (duck salad; [10]) | Plant response rating, Bedstraw (bedstraw; [1]) | Plant response rating, Wild oats (wild oat; [1]) | Soybean plant response rating (soybean; [5]) | Plant response rating, Rice (0 to 10 scale, 0 is no effect, 10 is complete control) (rice; [8]) | Rice plant response rating (0 to 10 scale, 0 is no effect, 10 is complete control) (rice; [9]) | Plant response rating, Barnyardgrass (0 to 10 scale, 0 is no effect, 10 is complete control) (bamyardgrass; [8]) | Barnyardgrass plant response rating (0 to 10 scale, 0 is no effect, 10 is complete control) (bamyardgrass; [9]) | Barnyardgrass plant response rating (bamyardgrass; [10]) | Plant response rating, Sugarbeets (sugar beet; [1]) | Plant response rating, Sugarbeets (sugar beet; [2]) | Sugarbeets plant response rating (sugar beet; [3]) | Plant response rating, Sugarbeets (sugar beet; [4]) | Plant response rating, Wheat (wheat; [1]) | Plant response rating, Nutsedge (purple nutsedge; [1]) | Plant response rating, Nutsedge (purple nutsedge; [2]) | Nutsedge plant response rating (purple nutsedge; [5]) | Nutsedge plant response rating (purple nutsedge; [6]) | Plant response rating, Cocklebur (cocklebur; [1]) | Cocklebur plant response rating (cocklebur; [3]) | Cocklebur plant response rating (cocklebur; [5]) | Cocklebur plant response rating (cocklebur; [6]) | Cocklebur plant response rating (0 to 10 scale) (cocklebur; Preemergence, Rate 250 g/ha) | Plant response rating, Velvetleaf (velvetleaf; [1]) | Plant response rating, Corn (corn; [1]) | Plant response rating, Corn (corn; [2]) | Corn plant response rating (corn; [5]) | Plant response rating, S. Flatsedge (0 to 10 scale, 0 is no effect, 10 is complete control) (smallflower flatsedge; [8]) | S. Flatsedge plant response rating (0 to 10 scale, 0 is no effect, 10 is complete control) (smallflower flatsedge; [9]) | S. Flatsedge plant response rating (smallflower flatsedge; [10]) | Morningglory plant response rating (morningglory; [5]) | Plant response rating, Rape (rape; [1]) | Plant response rating, Redroot pigweed (pigweed; [1]) | Plant response rating, B. signalgrass (surinam grass; [1])
